Test results reported in patent US5928627A, “Fluorescent chelates as visual tissue specific imaging agents” (The Dow Chemical Company, priority 1997, dated 1999).
“Also recorded” adds a separate entry of the source. Where two headings read alike, the source gives them in different places.

Columns and labels:
[1] = tested on: rat bone and intestinal tissues; conditions: in vivo
[2] = Fluorescence properties of the complexes; assay type: physicochemical; conditions: excited with a UV lamp
Excerpt: The use of terbium (Tb) or europium (Eu) as the central metal ion to render a tissue specific fluorescent probe is very appealing. Derivatives of this type would be valuable for visual assessment of tissue conditions such as early detection of cancer and would not depend upon protein conjugation to reach their target. Furthermore, concentration of the active fluorescent material could conceivably be much higher than in the case of immunoassays making detection much easier. The present complexes have an excitation band of 250 to 290 nm and a spike emission with peaks at bands of 490 to 510 nm, 540 to 560 nm, 590 to 600 nm and 615 to 635 nm, high quantum efficiency and millisecond relaxation lifetimes which allow signal collection after prompt tissue autofluorescence has subsided and allows data collection outside the range for normal tissue fluorescence. […] Furthermore, chelates derived from this family of macrocyclic ligands are among the most thermodynamically and kinetically inert lanthanide complexes, a paramount consideration for biological studies where metal ion toxicity is of major importance.

[3] = tested on: rat bone (femur); experiment: Micro-endoscopic fluorescence imaging of rat femur; assay type: in vivo
Excerpt: The optical train used is depicted in FIG. 5. For the resolution studies a 1951 USAF resolution target was used. The resolution target consists of groups of elements (lines) that are a known width, length and distance apart. The lines on the target are made from a black emulsion deposited onto a white positive background (clear glass). The images are obtained by back illuminating the resolution target using an IR filtered xenon discharge lamp. The beam from an optical fiber passes through a diffuser of in-house construction which replaces the 270 nm interference filter (4) shown in FIG. 5. The distance of the scope tip from the target (1.5 mm) was chosen so that the best in-focus image is produced. The image was collected by a 0°, 30° and 60° viewing angle with respect to the central axis of the thin rod lens endoscope. A 10× microscope objective, placed 10 mm from the endoscope, collected, magnified and played the image onto a CCD (5). […] The software produces a graph of light intensity as a function of position across the line pairs. The limiting resolution (LP/mm) is calculated using a aerial image modulation (AIM) plot and is defined as the point where the dI/dx remains constant.
Field of view measurements were made by repositioning the target so that a single line laterally spanned the field of view of the endoscope. The circular field of view is easily calculated knowing the length of the line on the resolution target the represents the diameter of the viewing zone. […]
For analysis of the bone fluorescence, two rats were injected with Tb-PCTMP or Tb-BP2P. […]
For the fluorescence measurements, the instrument in FIG. 5 was modified. […] A 550 nm bandpass filter was placed between the microscope objective (3) and the CCD (5) to select fluorescence and block background light. […]
Upon visual inspection of the high resolution video monitor (7), resolution of 181 LP/mm can be obtained. […] As calculated in a manner similar to Example II, it is possible to estimate the quantity of solute within a particular imaged zone. […]

[4] = tested on: UMR106 cells; experiment: Subcellular uptake fluorescence in UMR106 cells (organelle and membrane smears); assay type: cell-based; conditions: 2 mL of 2×10^-3 M
Method: UMR106 cells were obtained from American Type Culture Collection and maintained in Basal Eagle Media with 10% fetal bovine serum. Cells were propagated so that 3×10^7 cells were contained in 25 mL. One day prior to confluence, the cells were inoculated with 2 mL of 2×10^-3 M Tb-PCTMP. At confluence, the media and Tb-TCTMP was removed with four washings of PBS. Cells were separated from the flask with 3 mL of trypsin, transferred to a centrifuge tube with 12 mL of media and spun at 1000 g for 10 minutes to pellet the cells. The pellet was resuspended in 2 mL of media and frozen by submersion of the tube into liquid nitrogen. The frozen mixture was scooped out of the tube and transferred to a mortar. To the mixture, an equal weight of sea sand and 10 mL of liquid nitrogen were added. This mixture was ground with a pestle for 30 minutes until liquefied. The resulting mixture was transferred to a centrifuge tube and spun at 10,000 rpm for 15 minutes leaving intact cells, sand and membranes in the pellet and the cytoplasmic organelles in the supernatant. The supernatant was spun at 45,000 rpm for 90 minutes in an ultracentrifuge tube to pellet the organelles. […] Both the membranes and the organelles were smeared onto microscope slides and analyzed using a Zeiss microscope, modified for UV excitation.

[5] = tested on: IEC-6 cells; experiment: Cytotoxicity IEC-6 cells; assay type: cell-based
Excerpt: *Average of triplicate counting. Procedure detailed in Ref. 27

[6] = tested on: rat bone and intestinal tissues; experiment: Tissue fluorescence microscopy/tissue selectivity of Tb chelates in rats
[7] = tested on: colon adenocarcinoma (1,2 dimethylhydrazine induced tumors); experiment: Fluorescence imaging of normal versus neoplastic colon tissue after lavage; assay type: in vivo, Sprague Dawley rat; conditions: 0.1 mmol/kg, 20 minutes
Method: Tumors were induced in Sprague Dawley rats via injection of 1,2 dimethylhydrazine dihydrochloride and the subsequent feeding of a high fat, meat-based diet. […] One animal with an observable lesion was anesthetized, allowing it to respire during lavage introduction of the fluorescent marker. An aqueous solution of Tb-PTCMB at a concentration of 0.1 mmol/kg animal body weight, was administered to a Sprague Dawley rat using the 1.0 mm working lumen of the micro-endoscope. Introduction of the marker solution was made at the site of the suspect tissue mass with a volume necessary to fill the entire large intestine (method described in U.S. Pat. No. 5,456,245). […]
Upon dissection of the large intestine, a large occlusive mass approximately 4.5 cm by 5.0 cm was found approximately 15 cm from the rectum. […] Four slides from each tissue region were first left unstained for fluorescence microscopy imaging as described below and then stained with Hematoxylin and Eosin (H&E stain). Using standard histological criteria for diagnosis, tissue taken from the suspect site was determined to be adenocarcinoma. […] The tissue taken from a location removed from the abnormality was determined to be normal.
Using an in-house modified microscope, samples from the suspect and remote regions of the animal were imaged. Shown in FIGS. 10C and 11C are the fluorescence images of the identical regions of the same tissues. […]

[8] = tested on: HT-29 cells; experiment: Cytotoxicity HT-29 cells (Trypan blue); assay type: cell-based; conditions: 2 mL of 2 mM Tb-PCTMB
Method: HT-29 cell lines were obtained from American Type Culture Collection (ATCC) and maintained in Dulbecco's Modified Eagle Medium (DMEM) with 10% fetal bovine serum. Tree days prior to confluence, the cells were inoculated with 2 mL of 2 mM Tb-PCTMB and allowed to grow to confluence. Two days prior to confluence, the unbound TB-PCTMB was removed with four washings of PBS and the cells were removed from the flask with 3 mL of trypsin. The cell suspension was transferred to a centrifuge tube with 12 mL of growth media and spun a 1000 g for 10 minutes to pellet the cells. The media and the trypsin were removed and the cell suspension was resuspended in 5 mL of media. For ease in counting, 100 μL of the cell suspension was mixed with 100 μL of media in a microfuge tube. Fifty μL of this dilution was mixed with 50 μL of Trypan blue stain and loaded into the hemocytometer. The cells in 5 squares on the hemocytometer were counted where stained cells were dead and unstained cells were alive. Multiplication of the average count per square by the dilution factor (4) gave the number of cells×10^4 per mL. The number of cells reported is the average of three individual counts.

O=P(O)(O)CN1Cc2cccc(n2)CN(CP(=O)(O)O)Cc2cccc(n2)C1.[Tb] [Tb-BP2P, terbium N,N'-bis(methylenephosphonic acid)-2,11,diaza[3.3]-(2,6)pyridinophane]
distribution of the chelate in bone [1]: fairly uniform

O=P(O)(O)CN1CCN(CP(=O)(O)O)Cc2cccc(n2)CN(CP(=O)(O)O)CC1.[Tb] [Tb-PCTMP, terbium 3,6,9-tris(methylenephosphonic acid)-3,6,9,15-tetraazabicyclo[9.3.1]pentadeca-1(13),11,13-triene]
visible emission of the isolated complex [2]: brilliant green visible emission | quantity per pixel, blue-purple contour ([3]; excised rat femur, FIG. 8): 1.54×10^-15 moles Tb-PCTMP/pixel | quantity per pixel, red contour ([3]; excised rat femur, FIG. 8): 3.35×10^-15 moles Tb-PCTMP/pixel | solute present in entire imaged region of the bone (surface) ([3]; rat femur, 2 hours): about 5.19 picomoles | fluorescence in the organelle smear of dosed cells ([4]; control no discernible fluorescence): significant fluorescence was detected | fluorescence in the membrane smears ([4]; dosed and control cells): No signal was detected | tissue uptake/selectivity [1]: skeletal system uptake

CCCCOP(=O)(O)CN1CCN(CP(=O)(O)OCCCC)Cc2cccc(n2)CN(CP(=O)(O)OCCCC)CC1.[Tb] [Tb-PCTMB, terbium 3,6,9-tris(methylenephosphonic acid n-butyl ester)-3,6,9,15, tetraazabicyclo[9.3.1]pentadeca-1(15),11,13-triene]
Total Cells ([5]; average of triplicate counting, control 5.70 × 10^6): 5.30 × 10^6 | Dead Cells ([5]; control 10.5%): 9.4% | Live Cells ([5]; control 89.5%): 90.6% | tissue uptake/selectivity [6]: substantial hepatobiliary uptake; also recorded: concentrates in the small intestine | relative difference between the quantity of marker solute in normal versus neoplastic tissue [7]: an order of magnitude | uptake by abnormal colon tissue [7]: preferential or enhanced uptake | interactions between the chelate and blood proteins [1]: enhances interactions between the chelate and blood proteins | Total (Cells/ml) ([8]; average of triplicate counting, control 5.30 × 10^6): 4.70 × 10^6 Cells/ml | Dead Cells ([8]; control 5.7%): 8.5% | Live Cells ([8]; control 94.3%): 91.5%
